Legend:
[1] = target: ITK (Homo sapiens (Human), UniProt Q08881); test: ITK inhibitor binding potency (LanthaScreen competitive binding assay); details: TR-FRET tracer-236 displacement, 10 nM ITK; pre-incubation condition not given; read-out: ITK Inhibition IC50
Description: The ability of candidate compounds to interact with ITK is quantitated by a competitive binding assay using the LanthaScreen technology developed by Life Technologies. This assay is based on the binding of a proprietary, Alexa Fluor® 647-labeled, ATP-competitive kinase inhibitor (kinase tracer-236) to the ITK expression construct in the presence of a Europium-conjugated antibody, resulting in a FRET (fluorescence resonance energy transfer) signal. Displacement of the kinase tracer by compound results in a lower emission ratio upon excitation of the Europium chelate. Candidate compounds are designed as potential irreversible inhibitors of ITK, capable of ligating to an active site cysteine residue resulting in time dependent covalent binding. The time dependent nature of irreversible inhibition is investigated by performing the binding assay with and without a pre-incubation of compound and ITK. […] The inhibitory potency of candidate compounds is measured in 20 mM HEPES pH 7.5, 10 mM MgCl2, 0.01% BSA, 0.0005% Tween-20, and 2% DMSO in the presence of 10 nM ITK, 2 nM Eu-anti-GST antibody, and 50 nM kinase tracer-236 using a 384-well plate format. Background signal is defined in the absence of ITK and uninhibited signal is defined in the presence of vehicle (2% DMSO) alone. Compounds were evaluated in an 11 point dose-response ranging from 20 uM to 0.34 nM. The binding assays are performed under two preincubation conditions to evaluate time dependence of inhibition. For the pre-incubation assay, ITK and Eu-anti-GST antibody are pre-incubated with compound or vehicle for two hours prior to the addition of kinase tracer. The non-preincubated assay is run under conditions where ITK and Eu-anti-GST antibody are added to a mixture of compound and kinase tracer. IC50 values of compounds are determined using a 4 parameter logistical fit of emission ratio as a function of the concentration of compound.

[2] = system: phospho-PLCγ1 in Jurkat cells; test: ITK target modulation PLC-γ assay (phospho-PLCγ1, αCD3-stimulated Jurkat cells); format: cell-based, human; details: Homo sapiens, 1 hour compound incubation, αCD3 Dynabeads stimulation 8 minutes, MSD phospho-PLCγ1, read-out: PLC-γ Inhibition IC50
Procedure: Jurkat cells, an immortalized human T-lymphocyte cell line, were maintained in RPMI media, 10% FBS, 1% pen/strep/glutamine (growth media). Cells were plated in growth media plus 50 μM β-mercaptoethanol at 400,000 cells per well of a 96 well plate.
Compounds were serially diluted into DMSO, and then into media to concentrations 10× that of the final assay concentration. Compounds were then added to the cells with the final assay DMSO concentration being 0.1%. Cells were incubated for 1 hour at 37° C.
Following compound incubation, αCD3 Dynabeads were added at 1 bead/cell to each assay well and incubated at 37° C. for 7 minutes. Unstimulated control wells received media only. The plate was then placed on a 96-well magnetic plate for an additional 60 seconds (total assay stimulation time equals 8 minutes). The plate was then dumped and gently patted dry on a paper towel. 50 μl of complete Meso Scale Discovery (MSD) Lysis buffer was then added to each well. Samples were assayed for phospho-PLCγ1 using Meso Scale Discovery technology.
The assay stimulation time has been optimized for detection of Itk kinase-mediated phosphorylation of PLCγ1. The timing and detection reagents for this assay could be adjusted to capture phosphorylation events upstream (e.g., phospho-ZAP70) or downstream of the Itk/PLCγ1 node, provided the appropriate phospho-specific antibodies are available for building of an MSD assay.

Chain of ITK (Q08881 whole entry): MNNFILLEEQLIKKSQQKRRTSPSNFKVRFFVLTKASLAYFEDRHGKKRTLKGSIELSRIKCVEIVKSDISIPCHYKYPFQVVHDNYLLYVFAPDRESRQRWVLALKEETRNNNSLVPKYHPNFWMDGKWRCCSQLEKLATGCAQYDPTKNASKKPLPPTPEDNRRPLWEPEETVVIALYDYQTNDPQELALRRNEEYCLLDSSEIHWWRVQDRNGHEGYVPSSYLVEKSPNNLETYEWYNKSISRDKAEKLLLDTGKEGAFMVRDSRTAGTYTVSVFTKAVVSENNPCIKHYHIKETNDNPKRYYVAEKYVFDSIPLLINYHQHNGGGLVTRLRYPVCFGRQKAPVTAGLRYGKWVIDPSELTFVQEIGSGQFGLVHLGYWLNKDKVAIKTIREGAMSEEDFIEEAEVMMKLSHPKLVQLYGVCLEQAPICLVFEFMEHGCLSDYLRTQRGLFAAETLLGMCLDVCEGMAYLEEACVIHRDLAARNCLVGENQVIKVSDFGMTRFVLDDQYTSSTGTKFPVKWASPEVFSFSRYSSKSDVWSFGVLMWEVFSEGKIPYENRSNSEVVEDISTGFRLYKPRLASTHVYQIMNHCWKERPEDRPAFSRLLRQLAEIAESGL

| Structure (SMILES) | IC50 [1] [nM] | IC50 [2] [nM] |
| --- | --- | --- |
| C=CC(=O)NC1CN(c2cnc3[nH]cc(-c4ccccc4)c3c2)C1 [Example 1, N-(1-(3-Phenyl-1H-pyrrolo[2,3-b]pyridin-5-yl)azetidin-3-yl)acrylamide] | ≤ 1000 | > 5000 |
| C=CC(=O)NC1CN(c2cnc3[nH]cc(-c4ccnc(OC)c4)c3c2)C1 [Example 2, N-(1-(3-(2-Methoxypyridin-4-yl)-1H-pyrrolo[2,3-b]pyridin-5-yl)azetidin-3-yl)acrylamide] | ≤ 1000 |  |
| C=CC(=O)NC1CN(c2cnc3[nH]cc(-c4ccc(OC)nc4)c3c2)C1 [Example 3, N-(1-(3-(6-Methoxypyridin-3-yl)-1H-pyrrolo[2,3-b]pyridin-5-yl)azetidin-3-yl)acrylamide] | ≤ 1000 |  |
| C=CC(=O)NC1CN(c2cnc3[nH]cc(-c4ccnc(C)c4)c3c2)C1 [Example 4, N-(1-(3-(2-Methylpyridin-4-yl)-1H-pyrrolo[2,3-b]pyridin-5-yl)azetidin-3-yl)acrylamide] | ≤ 1000 | > 5000 |
| C=CC(=O)Nc1cccc(-c2cnc3[nH]cc(-c4ccnc(OC)c4)c3c2)c1 [Example 6, N-(3-(3-(2-Methoxypyridin-4-yl)-1H-pyrrolo[2,3-b]pyridin-5-yl)phenyl)acrylamide] | ≤ 1000 | < 1000 |
| C=CC(=O)Nc1cccc(-c2cnc3[nH]cc(-c4ccncc4)c3c2)c1 [Example 7, N-(3-(3-(pyridin-4-yl)-1H-pyrrolo[2,3-b]pyridin-5-yl)phenyl)acrylamide] | > 1000 |  |
| N#C/C(=C\c1cccc(-c2cnc3[nH]cc(-c4ccncc4)c3c2)c1)C(N)=O [Example 8, (E)-2-Cyano-3-(3-(3-(pyridin-4-yl)-1H-pyrrolo[2,3-b]pyridin-5-yl)phenyl)acrylamide] | ≤ 1000 | 1000 to 5000 |
| COc1cc(-c2c[nH]c3ncc(-c4cccc(/C=C(\C#N)C(N)=O)c4)cc23)ccn1 [Example 9, (E)-2-Cyano-3-(3-(3-(2-methoxypyridin-4-yl)-1H-pyrrolo[2,3-b]pyridin-5-yl)phenyl)acrylamide] | ≤ 1000 | > 5000 |
| C=CC(=O)NC1CN(c2cnc3[nH]cc(-c4ccncc4)c3c2)C1 [Example 10, N-(1-(3-(Pyridin-4-yl)-1H-pyrrolo[2,3-b]pyridin-5-yl)azetidin-3-yl)acrylamide] | ≤ 1000 | > 5000 |
| C=CC(=O)Nc1cc(-c2cnc3[nH]cc(-c4ccnc(OC)c4)c3c2)cc(C(F)(F)F)c1 [Example 11, N-(3-(3-(2-Methoxypyridin-4-yl)-1H-pyrrolo[2,3-b]pyridin-5-yl)-5-(trifluoromethyl)phenyl)acrylamide] | ≤ 1000 | < 1000 |
| C=CC(=O)N[C@H]1CCN(c2cnc3[nH]cc(-c4ccncc4)c3c2)C1 [Example 14, (S)-N-(1-(3-(pyridin-4-yl)-1H-pyrrolo[2,3-b]pyridin-5-yl)pyrrolidin-3-yl)acrylamide] | ≤ 1000 | > 5000 |
| C=CC(=O)N[C@H]1CCCN(c2cnc3[nH]cc(-c4ccncc4)c3c2)C1 [Example 15, (S)-N-(1-(3-(pyridin-4-yl)-1H-pyrrolo[2,3-b]pyridin-5-yl)piperidin-3-yl)acrylamide] | ≤ 1000 | > 5000 |
| C=CC(=O)Nc1cncc(-c2cnc3[nH]cc(-c4ccncc4)c3c2)c1 [Example 16, N-(5-(3-(pyridin-4-yl)-1H-pyrrolo[2,3-b]pyridin-5-yl)pyridin-3-yl)acrylamide] | ≤ 1000 |  |
| C=CC(=O)Nc1cncc(-c2cnc3[nH]cc(-c4ccc(=O)n(C)c4)c3c2)c1 [Example 17, N-(5-(3-(1-methyl-6-oxo-1,6-dihydropyridin-3-yl)-1H-pyrrolo[2,3-b]pyridin-5-yl)pyridin-3-yl)acrylamide] | ≤ 1000 | > 5000 |
| N#CN[C@H]1CCN(c2cnc3[nH]cc(-c4ccncc4)c3c2)C1 [Example 18, (S)-N-(1-(3-(pyridin-4-yl)-1H-pyrrolo[2,3-b]pyridin-5-yl)pyrrolidin-3-yl)cyanamide] | ≤ 1000 |  |
| C=CC(=O)N(C)c1cccc(-c2cnc3[nH]cc(-c4ccnc(OC)c4)c3c2)c1 [Example 21, N-(3-(3-(2-methoxypyridin-4-yl)-1H-pyrrolo[2,3-b]pyridin-5-yl)phenyl)-N-methylacrylamide] | ≤ 1000 | 1000 to 5000 |
| C=CC(=O)Nc1cncc(-c2cnc3[nH]cc(-c4ccnc(F)c4)c3c2)c1 [Example 27, N-(5-(3-(2-fluoropyridin-4-yl)-1H-pyrrolo[2,3-b]pyridin-5-yl)pyridin-3-yl)acrylamide] | ≤ 1000 |  |
| C=CC(=O)Nc1cc(-c2cnc3[nH]cc(-c4ccnc(OC)c4)c3c2)cc(OC)n1 [Example 40, N-(6-methoxy-4-(3-(2-methoxypyridin-4-yl)-1H-pyrrolo[2,3-b]pyridin-5-yl)pyridin-2-yl)acrylamide] | ≤ 1000 |  |
| C=CC(=O)Nc1cccc(-c2cnc3[nH]cc(-c4cccc5[nH]ccc45)c3c2)c1 [Example 71, N-(3-(3-(1H-indol-4-yl)-1H-pyrrolo[2,3-b]pyridin-5-yl)phenyl)acryl-amide] |  | 1000 to 5000 |
| C=CC(=O)Nc1cncc(-c2cnc3[nH]cc(-c4cn(C)c(=O)c5[nH]ccc45)c3c2)c1 [Example 73, N-(5-(3-(6-methyl-7-oxo-6,7-dihydro-1H-pyrrolo[2,3-c]pyridin-4-yl)-1H-pyrrolo[2,3-b]pyridin-5-yl)pyridin-3-yl)acrylamide] |  | > 5000 |
| N#C/C(=C\c1cccc(-c2cnc3[nH]cc(-c4ccncn4)c3c2)c1)C(N)=O [Example 75, (E)-2-cyano-3-(3-(3-(pyrimidin-4-yl)-1H-pyrrolo[2,3-b]pyridin-5-yl)phenyl)acryl-amide] |  | > 5000 |
| C=CC(=O)Nc1cccc(-c2cnc3[nH]cc(-c4cncc5[nH]ccc45)c3c2)c1 [Example 77, N-(3-(3-(1H-pyrrolo[2,3-c]pyridin-4-yl)-1H-pyrrolo[2,3-b]pyridin-5-yl)phenyl)acryl-amide] |  | > 5000 |
| C=CC(=O)Nc1cccc(-c2cnc3[nH]cc(-c4cc(OC)ncc4C)c3c2)c1 [Example 79, N-(3-(3-(2-methoxy-5-methylpyridin-4-yl)-1H-pyrrolo[2,3-b]pyridin-5-yl)phenyl)acryl-amide] |  | > 5000 |
| C=CC(=O)Nc1cc(-c2cnc3[nH]cc(-c4ccnc(OC)c4)c3c2)cc(-c2cnn(C)c2)c1 [Example 80, N-(3-(3-(2-methoxypyridin-4-yl)-1H-pyrrolo[2,3-b]pyridin-5-yl)-5-(1-methyl-1H-pyrazol-4-yl)phenyl)acryl-amide] |  | < 1000 |
| C=CC(=O)Nc1cccc(-c2cnc3[nH]cc(-c4cccc5occc45)c3c2)c1 [Example 82, N-(3-(3-(benzofuran-4-yl)-1H-pyrrolo[2,3-b]pyridin-5-yl)phenyl)acryl-amide] |  | > 5000 |
| C=CC(=O)Nc1cc(-c2cnc3[nH]cc(-c4ccnc(OC)c4)c3c2)cc(C(O)(CC)CC)c1 [Example 83, N-(3-(3-hydroxypentan-3-yl)-5-(3-(2-methoxypyridin-4-yl)-1H-pyrrolo[2,3-b]pyridin-5-yl)phenyl)acryl-amide] |  | 1000 to 5000 |
| C=CC(=O)Nc1cccc(-c2cnc3[nH]cc(-c4cn(CC5CC5)c(=O)c5[nH]ccc45)c3c2)c1 [Example 88, N-(3-(3-(6-(cyclopropyl-methyl)-7-oxo-6,7-dihydro-1H-pyrrolo[2,3-c]pyridin-4-yl)-1H-pyrrolo[2,3-b]pyridin-5-yl)phenyl)acryl-amide] |  | 1000 to 5000 |
| C=CC(=O)Nc1cccc(-c2cnc3[nH]cc(-c4ccnc(NC)n4)c3c2)c1 [Example 91, N-(3-(3-(2-(methylamino)pyrimidin-4-yl)-1H-pyrrolo[2,3-b]pyridin-5-yl)phenyl)acryl-amide] |  | < 1000 |
| C=CC(=O)Nc1cccc(-c2cnc3[nH]cc(-c4cccc(C#N)c4)c3c2)c1 [Example 92, N-(3-(3-(3-cyanophenyl)-1H-pyrrolo[2,3-b]pyridin-5-yl)phenyl)acryl-amide] |  | 1000 to 5000 |
